# According to PubChem BioAssay AID463204 (Broad Institute, 2010):
# The source made the active and inactive calls.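 The calls were made as follows: active = AC50 no more than ten times the top concentration tested, that is within one log above it; inconclusive = flat curve fit with activity between 30% and 70%, or invalid poor fit; inactive = AC50 beyond ten times the top tested dose.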
# Test system: S. cerevisiae Mot1-301 ts growth rescue, BacTiter-Glo ATP luminescence
# Test: growth rescue of Mot1-301 ts yeast, confirmation, SUMOylation pathway inhibitor project, whole organism, S. cerevisiae, Mot1-301 ts mutant, luminescence, dose retest (AID 463204);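 also: growth at restrictive 38.5 degrees C of Mot1-301 OY566 strain; actives raise luminescence by restoring growth of the ts mutant at high temperature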
row,Compound,AC50
1,CCCN1CCN(CCCNC(=O)CCn2nc(-c3ccccc3)ccc2=O)CC1,> 42 µM (inactive)
2,O=c1[nH]cnc2sc3c(c12)CCC3,> 42 µM (inactive)
3,CC(=O)N1CCCc2cc(S(=O)(=O)Nc3ccc(C)cc3C)ccc21,> 42 µM (inactive)
4,COc1ccc(CN(C)C(=O)c2sccc2-c2ccccc2)c(OC)c1,> 42 µM (inactive)
5,O=C(C1CCN(C2CC(=O)N(c3cccc(Cl)c3)C2=O)CC1)N1CCCC1 (stereo not given),7.84 µM
6,COc1cccc(CN2CCN(C(=O)c3cccc4ccccc34)CC2)c1OC,> 42 µM (inactive)
7,COc1ccccc1-c1sc2ccccc2c1-c1ccc2c(c1)OCO2,> 42 µM (inactive)
8,CCn1nc(C(=O)OCc2cccc(S(=O)(=O)N(C)C)c2)c2ccccc2c1=O,> 42 µM (inactive)
9,CN(C)S(=O)(=O)N1CCc2ccccc2C1,> 42 µM (inactive)
10,O=C(c1cccnc1)N1CCCC(Nc2ccc(F)cc2)C1 (stereo not given),> 42 µM (inactive)
11,CCOc1ccc(C(=O)Nc2ccc(C(F)(F)F)n(C)c2=O)cc1,> 42 µM (inactive)
12,C[n+]1c(-c2ccccc2)cc(CCCCc2cc(-c3ccccc3)[n+](C)c(-c3ccccc3)c2)cc1-c1ccccc1,> 21 µM (inactive)
13,CC1CC(C)(C)N2C(=O)C3(Nc4ccccc4S3)c3cccc1c32 (stereo not given),3.15 µM
14,COc1cccc(OC)c1C(=O)Nc1ccc2c(c1)n(C)c(=O)n2C,> 42 µM (inactive)
15,COc1ccc(Cl)cc1N(C(=O)c1ccco1)C(C(=O)NC1CCCC1)c1ccncc1 (stereo not given),> 42 µM (inactive)
16,COc1ccccc1NC(=O)c1ccc(-n2ccnc2)c([N+](=O)[O-])c1,> 42 µM (inactive)
17,COC(=O)C1(Cc2cc(-c3ccccc3)no2)CCN(C(=O)OC(C)(C)C)CC1,> 42 µM (inactive)
18,O=C(N/N=C/c1cccs1)c1cncc(Br)c1,> 42 µM (inactive)
19,COc1cc(C(=O)Nc2sc3c(c2C(=O)O)CCC(C)C3)cc(OC)c1OC (stereo not given),> 42 µM (inactive)
20,O=C(NC1CCCCCC1)C1CCN(S(=O)(=O)c2cccc3cccnc23)CC1,> 42 µM (inactive)
21,O=C1CC(N(CCc2ccccc2)C(=S)Nc2ccccc2)C(=O)N1c1ccc(F)cc1 (stereo not given),> 42 µM (inactive)
22,COC(=O)C1CN(C#N)N(c2ccc(Cl)cc2)C12c1ccccc1-c1ccccc12 (stereo not given),0.74 µM
23,COCCCn1c2nc3ccccc3nc2c2c(=O)n(Cc3ccc(Cl)cc3)cnc21,> 42 µM (inactive)
24,CN(CC(=O)Nc1sccc1C#N)Cc1ccccc1,> 42 µM (inactive)
25,O=C(CCNC(=O)c1ccc(Br)cc1)NCc1ccccc1F,> 42 µM (inactive)

row,Compound,AC50
1,COc1ccc(C2=NOC(Cn3nc(C(=O)NCc4cccs4)cc3-c3ccccc3)C2)cc1 (stereo not given),> 42 µM (inactive)
2,Cc1nnsc1C(=O)N1CCC(CO)(Cc2ccccc2Cl)CC1,> 42 µM (inactive)
3,Cc1cc(C)cc(OCC(=O)NC2CCCc3ccccc32)c1 (stereo not given),> 42 µM (inactive)
4,Nc1ccc(NC(=O)c2ccco2)c(Cl)c1,> 42 µM (inactive)
5,CC1(C)Oc2ccc3ccc(=O)oc3c2/C(=C/Nc2ccc(O)cc2)C1=O,> 42 µM (inactive)
6,CN(c1ccccc1)S(=O)(=O)c1ccc(C(=O)NCC2CCCO2)cc1 (stereo not given),> 21 µM (inactive)
7,O=C(Nc1nccs1)c1ccc(S(=O)(=O)c2ccccc2)cc1,> 42 µM (inactive)
8,COc1ccc(CCN(C)CCCC(C#N)(c2ccc(OC)c(OC)c2)C(C)C)cc1OC (stereo not given),> 42 µM (inactive)
9,O=C(c1cc(-c2ccc(Cl)cc2)n(-c2ccc(Cl)cc2)n1)N1CCOCC1,> 42 µM (inactive)
10,CC(C)C(=O)NNc1ccc(C(F)(F)F)cn1,> 42 µM (inactive)
11,OCC[C@@H]1C[C@H](O)[C@@H](O)[C@]2(CCc3ccccc3CO2)O1,> 42 µM (inactive)
12,COCCNC(=O)C(c1ccc(C)cc1)N(C(=O)CCC(=O)Nc1ccccn1)c1cccc(C)c1 (stereo not given),> 42 µM (inactive)
13,O=C(Nc1nccs1)C1CCN(S(=O)(=O)c2ccc(Cl)c(C(F)(F)F)c2)CC1,> 42 µM (inactive)
14,CCC(=O)Nc1nc(CC(=O)Nc2ccccc2OC)cs1,> 42 µM (inactive)
15,CC(C)C(CC(=O)NCc1ccco1)c1ccco1 (stereo not given),> 42 µM (inactive)
16,COc1ccc(N2C(=O)CSC23CCCCC3)cc1,> 42 µM (inactive)
17,COc1cc(/C=N/NC(=O)c2cccc([N+](=O)[O-])c2)ccc1O,> 42 µM (inactive)
18,COc1cccc(/C=N/n2cnc3ccccc32)c1OC,> 42 µM (inactive)
19,CCCCN(C(=O)C1=COCCO1)c1c(N)n(Cc2ccccc2)c(=O)[nH]c1=O,> 42 µM (inactive)
20,O=C(CSc1nc2ccc(Nc3nc(N4CCOCC4)nc(N4CCOCC4)n3)cc2s1)N1CCOCC1,> 42 µM (inactive)
21,CS(=O)(=O)N(CC(=O)N1CCN(c2ccccc2F)CC1)C1CCCCC1,> 42 µM (inactive)
22,Cc1ccccc1NC(=O)c1ccccc1NC(=O)c1ccco1,> 42 µM (inactive)
23,O=[N+]([O-])c1ccc(N/N=C/c2cccc(O)c2)cc1,29.4 µM
24,CCC(=O)N1c2ccc(S(=O)(=O)N3CCN(c4ccc([N+](=O)[O-])cc4)CC3)cc2CC1C (stereo not given),> 42 µM (inactive)
25,Cc1cc(C(=O)OCC(=O)Nc2cccc(S(N)(=O)=O)c2)c2ccccc2n1,> 42 µM (inactive)

row,Compound,AC50
1,Nc1nc(-c2ccc(Cl)cc2)nc(-c2ccc(Cl)cc2)n1,> 42 µM (inactive)
2,COc1ccc(C(=O)c2c(C)c3cc(C)ccc3n2CC(O)CN2CCOCC2)cc1 (stereo not given),> 21 µM (inactive)
3,Nc1ccc(S(=O)(=O)NNC(=O)C(=O)NNc2ccccc2)cc1,> 42 µM (inactive)
4,O=C(O)c1ccc(N=C2NC(=O)C(CO)(CO)S2)cc1,> 42 µM (inactive)
5,Cc1nc(-c2ccncc2)sc1C(=O)Nc1ccc(Br)cc1,> 42 µM (inactive)
6,O=C(O)CCSc1ccc([N+](=O)[O-])cc1[N+](=O)[O-],8.27 µM
7,CC12CC3(C)CC(C)(C1)CC(C(=O)NC(=S)N1CCCC1)(C2)C3,> 42 µM (inactive)
8,Cc1c(C(=O)N2CCN(CCc3ccccc3)CC2)oc2ccccc12,> 42 µM (inactive)
9,COc1cccc(NC(=S)NC(=O)c2cncc(Br)c2)c1,> 42 µM (inactive)
10,CCN1CCCC1CN(Cc1cc2ccc(C)cc2[nH]c1=O)C(=S)Nc1ccccc1C(=O)OC (stereo not given),> 42 µM (inactive)
11,COc1cccc(-n2nnc3c(=O)n(CC(=O)N4CCCc5ccccc54)cnc32)c1,> 42 µM (inactive)
12,Cc1ccccc1OCc1nc(-c2ccccc2)no1,> 42 µM (inactive)
13,CCN(CC)S(=O)(=O)c1ccc(S(=O)(=O)N2CCC(C(=O)NC3CCN(Cc4ccccc4)CC3)CC2)cc1,> 42 µM (inactive)
14,Cc1cc(NC(=O)CSc2ncn(-c3ccccc3)n2)no1,> 42 µM (inactive)
15,CCOc1ccccc1C(=O)NCc1ccc2c(c1)OCO2,> 42 µM (inactive)
16,COc1ccc(CCNC(=O)c2cc(-c3ccco3)on2)cc1OC,> 42 µM (inactive)
17,C/C(CC(=O)NC1CCCCC1)=N\NC(=O)Cc1ccc(-c2ccccc2)cc1,> 42 µM (inactive)
18,Cc1sc2nc(N)sc2c1C,> 42 µM (inactive)
19,O=C(Nc1ccc(F)cc1F)N1CCCN(c2ccc(C(F)(F)F)cn2)CC1,> 42 µM (inactive)
20,COc1cc(C(=O)OCC(=O)NC(C)CCc2ccccc2)cc(OC)c1OC (stereo not given),> 42 µM (inactive)
21,N#CC(C#N)=C1C=CC=CN1/C(=C\c1ccccc1Cl)C(=O)c1ccccc1,2.03 µM
22,c1ccc2cc(C3CCCCC3)ncc2c1,14 µM
23,Cc1cc(C)c2c(Cn3ccnc3)cc(=O)oc2c1,> 42 µM (inactive)
24,O=C(Cc1cccs1)Nc1cccc(-c2nnc(-c3ccco3)o2)c1,> 42 µM (inactive)
25,CCN(CC)C(=O)C1CCCN(c2ccc([N+](=O)[O-])cc2/C=N/NC(=O)c2cccc(Br)c2)C1 (stereo not given),> 42 µM (inactive)

row,Compound,AC50
1,OCCN1CN=C(Nc2nc3ccccc3o2)NC1,> 42 µM (inactive)
2,COc1cc(C(=O)COC(=O)c2cc([N+](=O)[O-])ccc2N2CCOCC2)ccc1OC(F)F,29.4 µM
3,O=C1NC(c2ccccc2)C(C(=O)c2cccs2)C(O)(C(F)(F)F)N1 (stereo not given),> 42 µM (inactive)
4,CCOC(=O)CSc1nc2ccccc2c(=O)n1CC(C)C,> 42 µM (inactive)
5,O=C(NCCCN1CCOCC1)C1CCC(=O)N1CCc1ccccc1 (stereo not given),> 42 µM (inactive)
6,O=C(OCC#CCSc1nnc(-c2ccccc2)o1)c1cc2ccccc2o1,> 42 µM (inactive)
7,CC1CCN(C(=O)c2[nH]cnc2C(=O)NCC(=O)OCc2ccccc2)CC1,> 42 µM (inactive)
8,O=C1c2cc(N3CCCC3)c([N+](=O)[O-])cc2C(=O)N1c1ccccc1,> 42 µM (inactive)
9,CCOC(=O)c1ccc(CNC(=O)C2CCCCC2C(=O)OCC(F)(F)F)o1 (stereo not given),> 42 µM (inactive)
10,O=C(NC(=S)NNC(=O)c1ccccc1O)c1cccc([N+](=O)[O-])c1,> 42 µM (inactive)
11,CC(=O)c1c(N)[nH]c(-c2ccccc2)nc1=S,> 42 µM (inactive)
12,COc1ccc(NC(=O)c2cc(S(=O)(=O)Nc3ccc(OC)cc3)cs2)cc1,> 42 µM (inactive)
13,CCCNC(=O)c1cc2c(C(F)(F)F)nn(C)c2s1,> 42 µM (inactive)
14,Cc1cc(S(=O)(=O)N2CCCCC2CCNC(=O)C(=O)NCC2CCCO2)ccc1F (stereo not given),> 42 µM (inactive)
15,C=C(C)Cn1c(N)cc(=O)nc1SCC(=O)Nc1cccc(C(F)(F)F)c1,> 42 µM (inactive)
16,COc1ccc(CCNC(=O)CC2C(=O)NCCN2CC(C)(C)C)cc1 (stereo not given),> 42 µM (inactive)
17,CSc1ncc2ncn(C3OC(CO)C(O)C3O)c2n1 (stereo not given),> 42 µM (inactive)
18,COc1ccc(C(=O)O)cc1S(=O)(=O)NCCN(C)C,> 42 µM (inactive)
19,O=C(CSc1ccc(Br)cc1)Nc1ccccc1N1CCOCC1,> 42 µM (inactive)
20,CCOC(=O)N1CCN(C(=O)c2ccc3ccccc3c2)CC1,> 42 µM (inactive)
21,CC(=O)N1CC(=O)Nc2ccc(Cl)cc2C1c1ccccc1 (stereo not given),> 42 µM (inactive)
22,O=C(c1cc(-c2ccc(Cl)c(Cl)c2)on1)N1CCN(c2ccccc2)CC1,> 42 µM (inactive)
23,O=C(CCC(=O)OCC(=O)c1ccc(Br)cc1)Nc1cccc2cccnc12,> 42 µM (inactive)
24,O=C(Nc1ccccc1N1CCOCC1)c1cc(Br)c(Br)s1,> 42 µM (inactive)
25,COc1ccccc1CNc1nc(SC)ncc1CO,> 42 µM (inactive)
